From patent publication US8901301B2, “Pyrrolo[2,3-]pyridine kinase inhibitors” (Plexxikon Inc., priority 2009, dated 2014)

Key:
Trk = Trk (Homo sapiens, UniProt P04629); experiment: Biochemical inhibitory activity, other protein kinases: Trk; settings: listing of the kinase means IC50 >1 μM
PI3Kγ = PI3Kγ (Homo sapiens, UniProt P48736); experiment: Biochemical inhibitory activity, other protein kinases: PI3Kγ; settings: listing of the kinase means IC50 >1 μM
Flt1 = Flt1 (Homo sapiens, UniProt P17948); experiment: Biochemical inhibitory activity, other protein kinases: Flt1; settings: listing of the kinase means IC50 >1 μM
Ack1 = Ack1 (Homo sapiens, UniProt Q07912); experiment: Biochemical inhibitory activity, other protein kinases: Ack1; settings: listing of the kinase means IC50 <1 μM
Sequence of Ack1 (Q07912 whole entry, species assumed): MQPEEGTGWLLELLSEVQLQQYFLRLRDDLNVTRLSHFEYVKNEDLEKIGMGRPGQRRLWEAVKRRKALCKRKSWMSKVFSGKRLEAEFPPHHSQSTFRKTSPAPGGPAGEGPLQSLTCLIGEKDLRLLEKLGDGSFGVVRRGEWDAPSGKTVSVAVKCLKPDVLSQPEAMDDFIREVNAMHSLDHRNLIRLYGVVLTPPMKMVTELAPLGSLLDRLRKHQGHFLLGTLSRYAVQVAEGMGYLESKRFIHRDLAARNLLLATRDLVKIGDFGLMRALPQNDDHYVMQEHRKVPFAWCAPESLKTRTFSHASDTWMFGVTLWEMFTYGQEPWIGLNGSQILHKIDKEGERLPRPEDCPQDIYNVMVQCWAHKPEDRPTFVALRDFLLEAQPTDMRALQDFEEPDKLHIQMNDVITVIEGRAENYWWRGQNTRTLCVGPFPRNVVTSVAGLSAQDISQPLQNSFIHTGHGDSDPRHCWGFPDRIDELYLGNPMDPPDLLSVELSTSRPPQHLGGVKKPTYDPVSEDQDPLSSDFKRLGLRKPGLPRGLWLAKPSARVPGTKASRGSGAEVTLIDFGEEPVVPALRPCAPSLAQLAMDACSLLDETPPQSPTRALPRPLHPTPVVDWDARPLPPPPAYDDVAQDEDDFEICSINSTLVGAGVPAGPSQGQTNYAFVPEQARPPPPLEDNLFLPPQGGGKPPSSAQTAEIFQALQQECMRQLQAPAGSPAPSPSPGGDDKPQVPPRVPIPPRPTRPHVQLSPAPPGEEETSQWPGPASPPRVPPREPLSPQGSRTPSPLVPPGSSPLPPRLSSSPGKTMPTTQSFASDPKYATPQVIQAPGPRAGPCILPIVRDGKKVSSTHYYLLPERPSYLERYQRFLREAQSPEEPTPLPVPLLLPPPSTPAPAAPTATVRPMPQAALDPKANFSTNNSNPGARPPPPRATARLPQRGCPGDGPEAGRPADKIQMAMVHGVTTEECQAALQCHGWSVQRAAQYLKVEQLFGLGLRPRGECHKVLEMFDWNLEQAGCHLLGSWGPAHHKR

Sequence of Flt1 (P17948 27-1338, species assumed): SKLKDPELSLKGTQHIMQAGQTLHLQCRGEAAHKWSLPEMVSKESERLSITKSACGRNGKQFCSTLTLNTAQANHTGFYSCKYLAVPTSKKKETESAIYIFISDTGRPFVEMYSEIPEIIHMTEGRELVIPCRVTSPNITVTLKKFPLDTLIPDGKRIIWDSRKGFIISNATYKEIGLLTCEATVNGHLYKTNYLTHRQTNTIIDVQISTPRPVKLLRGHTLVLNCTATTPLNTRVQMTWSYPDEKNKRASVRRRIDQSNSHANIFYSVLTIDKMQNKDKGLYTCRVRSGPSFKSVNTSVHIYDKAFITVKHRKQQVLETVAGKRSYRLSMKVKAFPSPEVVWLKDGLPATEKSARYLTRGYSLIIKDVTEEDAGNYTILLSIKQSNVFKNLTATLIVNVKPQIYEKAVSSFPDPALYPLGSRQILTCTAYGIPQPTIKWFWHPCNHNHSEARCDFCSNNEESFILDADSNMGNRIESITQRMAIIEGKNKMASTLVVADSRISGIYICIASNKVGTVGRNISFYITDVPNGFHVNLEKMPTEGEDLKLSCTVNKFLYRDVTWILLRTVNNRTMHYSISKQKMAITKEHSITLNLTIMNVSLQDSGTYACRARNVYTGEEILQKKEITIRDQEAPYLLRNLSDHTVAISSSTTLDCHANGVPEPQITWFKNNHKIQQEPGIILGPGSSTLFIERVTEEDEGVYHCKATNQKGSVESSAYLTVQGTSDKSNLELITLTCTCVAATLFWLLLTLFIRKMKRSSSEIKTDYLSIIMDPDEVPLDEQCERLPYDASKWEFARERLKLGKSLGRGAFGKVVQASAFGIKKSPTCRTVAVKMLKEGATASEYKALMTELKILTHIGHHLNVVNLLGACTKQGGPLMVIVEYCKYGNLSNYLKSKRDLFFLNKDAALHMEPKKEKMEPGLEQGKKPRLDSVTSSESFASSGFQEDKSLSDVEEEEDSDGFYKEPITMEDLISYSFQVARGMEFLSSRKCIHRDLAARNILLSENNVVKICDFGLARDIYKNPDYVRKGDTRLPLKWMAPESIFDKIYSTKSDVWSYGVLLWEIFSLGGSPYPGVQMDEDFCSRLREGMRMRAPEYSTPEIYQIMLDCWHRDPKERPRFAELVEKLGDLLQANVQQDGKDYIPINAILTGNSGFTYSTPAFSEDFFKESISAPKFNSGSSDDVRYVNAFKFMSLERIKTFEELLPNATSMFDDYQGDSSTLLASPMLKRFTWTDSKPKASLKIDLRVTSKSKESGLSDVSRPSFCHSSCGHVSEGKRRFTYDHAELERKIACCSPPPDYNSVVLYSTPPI
Sequence of PI3Kγ (P48736 whole entry, species assumed): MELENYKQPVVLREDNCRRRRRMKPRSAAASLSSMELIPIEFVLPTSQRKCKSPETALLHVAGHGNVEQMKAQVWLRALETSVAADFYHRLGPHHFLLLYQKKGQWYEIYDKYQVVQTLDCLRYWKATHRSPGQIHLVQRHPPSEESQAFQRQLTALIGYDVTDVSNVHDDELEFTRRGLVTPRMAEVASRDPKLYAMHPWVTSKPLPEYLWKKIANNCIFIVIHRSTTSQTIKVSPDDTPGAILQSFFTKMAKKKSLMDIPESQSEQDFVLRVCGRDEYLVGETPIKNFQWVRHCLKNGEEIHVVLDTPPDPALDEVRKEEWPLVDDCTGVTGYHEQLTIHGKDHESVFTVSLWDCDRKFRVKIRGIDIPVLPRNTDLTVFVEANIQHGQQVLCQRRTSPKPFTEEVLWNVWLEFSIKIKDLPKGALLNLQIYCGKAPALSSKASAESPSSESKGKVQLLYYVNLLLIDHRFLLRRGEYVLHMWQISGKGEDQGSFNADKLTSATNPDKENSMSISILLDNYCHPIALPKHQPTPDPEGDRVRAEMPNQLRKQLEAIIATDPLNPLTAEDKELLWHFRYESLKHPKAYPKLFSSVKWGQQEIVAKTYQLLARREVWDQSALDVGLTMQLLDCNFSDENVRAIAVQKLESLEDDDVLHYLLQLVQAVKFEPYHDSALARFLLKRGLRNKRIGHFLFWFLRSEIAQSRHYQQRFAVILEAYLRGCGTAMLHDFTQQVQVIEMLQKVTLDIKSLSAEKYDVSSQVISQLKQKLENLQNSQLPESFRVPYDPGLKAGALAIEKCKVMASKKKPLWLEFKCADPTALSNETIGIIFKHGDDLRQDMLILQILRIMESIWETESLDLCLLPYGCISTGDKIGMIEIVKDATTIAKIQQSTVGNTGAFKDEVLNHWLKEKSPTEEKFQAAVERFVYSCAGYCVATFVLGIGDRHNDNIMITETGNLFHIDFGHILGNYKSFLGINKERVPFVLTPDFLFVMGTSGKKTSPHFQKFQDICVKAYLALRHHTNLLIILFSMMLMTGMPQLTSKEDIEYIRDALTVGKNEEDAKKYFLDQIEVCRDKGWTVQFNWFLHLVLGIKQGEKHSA
Sequence of Trk (P04629 33-796, species assumed): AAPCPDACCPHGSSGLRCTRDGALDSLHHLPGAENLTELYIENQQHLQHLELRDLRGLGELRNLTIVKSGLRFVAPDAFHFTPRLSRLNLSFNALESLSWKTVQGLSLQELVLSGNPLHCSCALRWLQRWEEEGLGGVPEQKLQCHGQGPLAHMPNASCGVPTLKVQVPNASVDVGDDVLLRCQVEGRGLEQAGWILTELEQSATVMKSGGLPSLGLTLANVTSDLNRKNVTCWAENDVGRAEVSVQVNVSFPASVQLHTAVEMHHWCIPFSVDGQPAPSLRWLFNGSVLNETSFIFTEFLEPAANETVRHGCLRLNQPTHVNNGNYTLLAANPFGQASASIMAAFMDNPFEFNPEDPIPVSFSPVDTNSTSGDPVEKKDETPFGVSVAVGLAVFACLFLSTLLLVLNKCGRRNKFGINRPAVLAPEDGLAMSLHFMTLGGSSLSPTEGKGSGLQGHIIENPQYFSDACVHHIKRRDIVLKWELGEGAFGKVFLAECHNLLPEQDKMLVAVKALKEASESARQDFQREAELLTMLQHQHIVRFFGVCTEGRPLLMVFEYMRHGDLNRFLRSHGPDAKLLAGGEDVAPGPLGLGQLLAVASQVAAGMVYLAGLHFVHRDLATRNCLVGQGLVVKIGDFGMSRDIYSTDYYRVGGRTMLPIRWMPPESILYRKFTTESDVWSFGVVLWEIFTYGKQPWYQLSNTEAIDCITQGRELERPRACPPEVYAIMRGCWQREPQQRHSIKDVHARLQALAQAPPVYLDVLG

## CCCS(=O)(=O)Nc1ccc(F)c(C(=O)c2c[nH]c3ncc(-c4cnc(OC)nc4)cc23)c1F [Compound P-0001, propane-1-sulfonic acid {2,4-difluoro-3-[5-(2-methoxy-pyrimidin-5-yl)-1H-pyrrolo[2,3-b]pyridine-3-carbonyl]-phenyl}-amide]
Trk
  Kinase having IC50 of >1 μM: Trk
PI3Kγ
  Kinase having IC50 of >1 μM: PI3Kγ

## CCCS(=O)(=O)Nc1ccc(F)c(C(=O)c2c[nH]c3ncc(C#N)cc23)c1F [Compound P-0002, propane-1-sulfonic acid [3-(5-cyano-1H-pyrrolo[2,3-b]pyridine-3-carbonyl)-2,4-difluoro-phenyl]-amide]
Flt1
  Kinase having IC50 of >1 μM: Flt1
Ack1
  Kinase having IC50 of <1 μM: Ack1
